Here are results for one compound from US20220025003A1, “REAGENTS AND METHODS FOR CONTROLLING PROTEIN FUNCTION AND INTERACTION” (University of Washington, priority 2018, published 2022).

A value given as a limit tells only on which side of the number the result lay.

The subject of experiment [1] is GFP reporter. Briefly: Combined CXCR4 and GFP induction with scRNAs, NS3a-VPR. To be noted: read-out: EC50 (GFP expression). Format: cell-based.
Experiment [2] relates to CXCR4. Briefly: dCas9 transcription control, immunofluorescence FACS. To be noted: CXCR4 and CD95. Format: cell-based, human.
In experiment [3] the test system is mCherry reporter gene in HEK293T cells. Nature of the experiment: Chemically-disruptable Gal4(DBD)-NS3a(H1)/ANR-VPR transcriptional regulation. Format: cell-based. To be noted: 1 μM drug, 24 hours. As to the method:
Cells were subsequently transfected with 1 μg of the Gal4 reporter plasmid (UAS-mCherry™/CMV-Gal4-NS3a(H1)-P2A-ANR-Myc-BFP-VPR-NLS) in OptiMem™. […] Supernatant was subsequently removed and the cells were re-suspended in 400 μL DPBS and analyzed on a FACS LSRII (BD Biosciences).
For Gal4/NS3a-CDP mediated transcriptional activation FACS experiments, 10,000 single cell events were collected for each of the samples run. […] The gathered FACS data were analyzed using FlowJo™ (v.10.1).

For experiment [4], the system named is RAS/ERK pathway in HEK293 cells. Nature of the experiment: Activation of NS3a-CDAR, phospho-ERK blot. The experiment is classed as cell-based. To be noted: 10 μM drug, 60 min. As to the method: 18-24 hours prior to transfection, 3.0×10^5 HEK293 cells were plated onto poly-D-lysine 12 well plates. Immediately prior to transfection, media was aspirated and cells were washed with 1 mL of pre-warmed (37° C.) PBS, then serum starved with FBS-free DMEM. Following serum starvation, cells were transfected with 1 μg of FLAG-tagged NS3a-CDAR, BH3-NS3a-CDAR, or an empty pCDNA5 vector. Transfected cells were allowed to serum stave for 18-20 hours prior to drug treatment. For drug treatment, serum-free media was prepared with DMSO or 10 μM of a drug. Media was aspirated, washed once with pre-warmed DPBS, then treated with drug/DMSO media for the requisite amount of time. Media was subsequently aspirated and the cells were washed twice with 1 mL chilled PBS, then lysed with 75 μL Mod. RIPA buffer (50 mM Tris, pH 7.8, 1% IGEPAL CA-630, 150 mM NaCl, 1 mM EDTA, 2 mM Na3VO4, 30 mM NaF, Pierce Protease Inhibitor Tablet). Cleared lysates were subjected to SDS-PAGE and transferred to nitrocellulose. Blocking and antibody incubations were done in TBS with 0.1% Tween-20 (v/v) and blocking buffer (Odyssey). Primary antibodies were all purchased from Cell Signaling Technologies and were diluted as follows: Total ERK (1:2500, #9107), phosphorylated ERK (1:2500, #4370), FLAG (1:2,500, #D6W5B). Blots were washed three times in TBS with 0.1% Tween-20. Antibody binding was detected by using near-infrared-dye-conjugated secondary antibodies and visualized on the LI-COR Odyssey scanner. Blots were quantified via densitometry with Image Studio (LI-COR).

Experiment [5] concerns HeLa cells. Nature of the experiment: Widefield microscopy for signaling phenotype analysis. Format: cell-based. To be noted: EGFP-DNCR2-TIAM, BFP-GNCR1-LARG and NS3a-CAAX in HeLa cells. As to the method: Widefield images were collected in an environmental chamber with humidity control, 37° C., and 5% CO2 on a Leica DMi8 automated fluorescence microscope. Cells were plated on glass-bottomed 96-well plates (Cellvis). Plates were treated with 10 μg/mL bovine fibronectin (Sigma Aldrich) for 1 hour and washed once with PBS.
The cell line used was TRex™-HeLa (ThermoFisher Scientific), into which Lifeact-mCherry™ was stably integrated into the doxycycline-regulated Flp-In site by co-transfection of the pCDNA5-FRT/TO-Lifeact-mCherry™ vector with the Flp recombinase plasmid pOG44 (ThermoFisher Scientific) according to manufacturer's protocols. Lifeact-mCherry™ was induced by addition of 1 μg/mL doxycycline to culture media. For expression of signaling effector proteins, 1 day prior to imaging, 5×10^6 cells were transiently transfected with 10 μg DNA in a 100 μL electroporation tip using a Neon transfection system (ThermoFisher Scientific) according to manufacturer's recommendations for HeLa cells. 5×10^3 cells were plated in each well of the 96-well plate used for imaging. Cells recovered in complete DMEM with 10% FBS overnight. […] For Rac/Rho regulation, the construct PB-NS3a-CAAX-IRES-EGFP-DNCR2-TIAM-P2a-BFP-GNCR1-LARG was used, with images collected for the mCherry™ (Lifeact) and EGFP (DNCR2-TIAM) channels. […]

Experiment [6] relates to GFP, CD95 and CXCR4. Nature of the experiment: 3-gene experiment (GFP, CD95, CXCR4) by RT-qPCR. Format: cell-based. As to conditions: 10 μM danoprevir, 1 μM grazoprevir, 1 μM asunaprevir. From the text: Cells were harvested on day 5 as described above for other samples to be analyzed to qPCR.
For orientation: In qPCR the cycle at which signal appears reflects the starting amount.

The target of experiment [7] is T1, NS3a active (Hepatitis C virus genotype 1b, UniProt Q9WMX2, A1176V/E1056D/L1047A/L1120M/Q1112P/R1052K/V1062L/V1196I).
T1 construct: Avi-His6-NS3a; made in house; host or cells: E. coli BL21 (DE3)
Briefly: Fluorescence polarization competition assay with FAM-ANR. Format: binding. As to the method: (§1) Fluorescence polarization competition assays were used to determine the ability of danoprevir to displace ANR. A 75 nM solution of NS3a in FP-Buffer was incubated with 50 nM FAM-ANR in a black 96-well plate for 1 hour in the dark. 3-fold serial dilutions of danoprevir were prepared in FP-Buffer such that, when added to the NS3a/FAM-ANR solution, the highest concentration of danoprevir tested was 10 μM. Plates were incubated for 1 hour in the dark. Fluorescence polarization was measured at 22° C. on a Perkin Elmer EnVision™ fluorometer (excitation, 495 nm; emission 520 nm). Each measurement was carried out in triplicate. Anisotropy values were obtained and a nonlinear regression model was used to fit curves with GraphPad Prism.
A general note: Polarisation of emitted light reports the rotation of a fluorescent probe.

Experiment [8] deals with T2, NS3a inactive (S139A) (Hepatitis C virus genotype 1b, UniProt Q9WMX2, A1176V/E1056D/L1047A/L1120M/Q1112P/R1052K/S1165A/V1062L/V1196I).
T2 construct: Avi-His6-NS3a; the text calls the FP protein non-biotinylated) (N); made in house; host or cells: E. coli BL21 (DE3)
The experiment is described as above. Format: binding. To be noted: 75 nM NS3a, read-out: apparent IC50. As to the method:
as §1

In experiment [9] the test system is CXCR4. Briefly: Danoprevir/grazoprevir titrations to linearize CXCR4 or CD95 expression. The experiment is classed as cell-based, human. To be noted: increasing proportion of grazoprevir added to danoprevir titration. From the text: Data were fit to four-parameter log dose-response curves (fitting EC50, upper and lower baselines, and Hill coefficient) in Graphpad Prism 5.

For experiment [10], the target named is NS3a. To be noted: read-out: NS3a:drug Ki; published enzyme inhibition studies; cited from earlier work.

As to `CC(C)(C)OC(=O)N[C@H]1CCCCC/C=C\[C@@H]2C[C@@]2(C(=O)NS(=O)(=O)C2CC2)NC(=O)[C@@H]2C[C@@H](OC(=O)N3Cc4cccc(F)c4C3)CN2C1=O` [danoprevir], in experiment [1], the EC50 – broadly, the concentration that produces a half-maximal response – came out at 0.79 nM. In [2], the “effect on gene expression in the absence of the guide RNA” value was “no effect”. For the same compound, the “mCherry expression after drug treatment” value in experiment [3] is “decreased mCherry™ expression to background levels”. Moreover, the “phospho-ERK levels in cells expressing NS3a-CDAR” value in experiment [4] was “robust increase in phospho-ERK levels”. The cell shape change result in experiment [5] is “caused cell expansion”. Further, the “transcriptional output state in 3-gene system” value in experiment [6] is given as “CD95 expression under control of DNCR2”. The “displacement of ANR from NS3a” value in experiment [7] was “potently and dose-dependently displace ANR from NS3a”. For the same compound, the IC50 (usually the concentration at which inhibition is half-maximal) in [7] (NS3a active, 75 nM NS3a, FAM-ANR, read-out: apparent IC50) was less than 75 nM; in experiment [8] it was less than 75 nM. In experiment [9], the “linear output range of CXCR4 expression” value is 3 orders of magnitude. Besides, the inhibition constant (Ki) (commonly the equilibrium dissociation constant of an inhibitor or competing ligand from its target) in experiment [10] was 1 nM.
